PubChem BioAssay AID2060508 (Molecular Pharmacology Branch, DTP, NCI, 2025)

Test system: 454973-116-R2-J3-PDC spheroids, viability, % test/control
Assay: Anticancer human tumor 454973-116-R2-J3-PDC patient-derived pancreatic carcinoma cell line growth inhibition [GQUAD]
Settings: spheroids with HUVEC and MSC; for IC50: curve of first compound; for viability, T/C: stronger effect = lower value
How it was run: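 Tumor cells were grown as complex spheroids with HUVEC endothelial cells and mesenchymal stem cells as stroma. G-quadruplex stabilizers were combined with targeted agents over half-log dilutions from near the clinical Cmax, or from 10 microM.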
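Note: spheroids exposed to compounds for seven days.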
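Throughout, for viability, T/C: 100% = DMSO vehicle control viability.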

C=CC(=O)N1CCN(c2nc(=O)n(-c3c(C)ccnc3C(C)C)c3nc(-c4c(O)cccc4F)c(F)cc23)C(C)C1 (configuration not stated) + Cc1[nH]c2ccc(F)cc2c1-c1nc2c3cccnc3c3ncccc3c2[nH]1
IC50 (second compound 0.0316 µM): > 10 µM
IC50 (second compound 0.1 µM): > 10 µM
IC50 (second compound 0.316 µM): > 10 µM
IC50 (second compound 1 µM): > 10 µM
IC50 (second compound 3.16 µM): > 10 µM
IC50 (second compound 10 µM): > 10 µM
viability, T/C (second compound 0.0316 µM, first compound 0.0316 µM): 110%
viability, T/C (second compound 0.0316 µM, first compound 0.1 µM): 107%
viability, T/C (second compound 0.0316 µM, first compound 0.316 µM): 115%
viability, T/C (second compound 0.0316 µM, first compound 1 µM): 109%
viability, T/C (second compound 0.0316 µM, first compound 3.16 µM): 113%
viability, T/C (second compound 0.0316 µM, first compound 10 µM): 114%
viability, T/C (second compound 0.1 µM, first compound 0.0316 µM): 100%
viability, T/C (second compound 0.1 µM, first compound 0.1 µM): 102%
viability, T/C (second compound 0.1 µM, first compound 0.316 µM): 114%
viability, T/C (second compound 0.1 µM, first compound 1 µM): 108%
viability, T/C (second compound 0.1 µM, first compound 3.16 µM): 125%
viability, T/C (second compound 0.1 µM, first compound 10 µM): 109%
viability, T/C (second compound 0.316 µM, first compound 0.0316 µM): 103%
viability, T/C (second compound 0.316 µM, first compound 0.1 µM): 111%
viability, T/C (second compound 0.316 µM, first compound 0.316 µM): 107%
viability, T/C (second compound 0.316 µM, first compound 1 µM): 100%
viability, T/C (second compound 0.316 µM, first compound 3.16 µM): 119%
viability, T/C (second compound 0.316 µM, first compound 10 µM): 113%
viability, T/C (second compound 1 µM, first compound 0.0316 µM): 107%
viability, T/C (second compound 1 µM, first compound 0.1 µM): 97%
viability, T/C (second compound 1 µM, first compound 0.316 µM): 112%
viability, T/C (second compound 1 µM, first compound 1 µM): 103%
viability, T/C (second compound 1 µM, first compound 3.16 µM): 114%
viability, T/C (second compound 1 µM, first compound 10 µM): 123%
viability, T/C (second compound 3.16 µM, first compound 0.0316 µM): 96.2%
viability, T/C (second compound 3.16 µM, first compound 0.1 µM): 95.3%
viability, T/C (second compound 3.16 µM, first compound 0.316 µM): 96.4%
viability, T/C (second compound 3.16 µM, first compound 1 µM): 111%
viability, T/C (second compound 3.16 µM, first compound 3.16 µM): 113%
viability, T/C (second compound 3.16 µM, first compound 10 µM): 107%
viability, T/C (second compound 10 µM, first compound 0.0316 µM): 93.8%
viability, T/C (second compound 10 µM, first compound 0.1 µM): 81.8%
viability, T/C (second compound 10 µM, first compound 0.316 µM): 104%
viability, T/C (second compound 10 µM, first compound 1 µM): 92.8%
viability, T/C (second compound 10 µM, first compound 3.16 µM): 89.6%
viability, T/C (second compound 10 µM, first compound 10 µM): 83.6%
